Assay results from patent US8648100B2, “Roflumilast for the treatment of pulmonary hypertension” (Takeda GmbH, priority 2005, dated 2014).
Like-named read-outs stand apart in the source and are kept apart here.

Legend:
Assay type in all cases: in vivo, adult male Wistar rats
[1] = tested on: monocrotaline (MCT)-induced pulmonary arterial hypertension in rats; test: Monocrotaline (MCT)-induced pulmonary hypertension in rats, preventive treatment paradigm; details: for PAP: mean ± SEM; for Muscularization: distal pulmonary arteries; for RV/LV + S: right ventricular hypertrophy index
Procedure: (§1) The objective of the pharmacological investigation was to characterize the effect of orally administered Roflumilast at 0.5 mg kg^−1 d^−1 and 1.5 mg kg^−1 d^−1 on the increase in mean PAP and RV/LV+S ratio as well as distal arteriolar muscularization triggered by chronic hypoxia or monocrotalin (MCT) in rats. Hypoxia- or MCT-induced pulmonary hypertension in rats represent widely accepted animal models to study the potential of investigative drugs to reverse chronic pulmonary hypertension based on pulmonary vascular remodelling. In the MCT setting Roflumilast was administered both in preventive and curative paradigms.
(§2) Experiments were performed with adult male Wistar rats (200-250 g) according to institutional guidelines abiding to national and international regulations.
(§3) Rats were randomly assigned to three groups (8-10 animals in each group): two groups received Roflumilast 0.5 and 1.5 mg kg^−1 d^−1, respectively; and one group received vehicle. In the preventive treatment paradigm Roflumilast or vehicle were given once daily by gavage for 21 days starting immediately after a single subcutaneous injection of MCT (60 mg kg^−1). A group not receiving MCT served as control. In a curative approach rats were left untreated for 21 days following MCT (60 mg/kg s.c.) and than randomly divided into two groups, one received roflumilast (1.5 mg/kg/d) p.o. and the other vehicle, from day 21 to day 42.
(§4) At the end of the treatment period rats were anaethesized with sodium pentobarbital (60 mg/kg, i.p.). A polyvinyl catheter was introduced into the right jugular vein and pushed through the right ventricle into the pulmonary artery. Another polyethylene catheter was inserted into the right carotid artery. After measurement of pulmonary (PAP) and systemic arterial pressures (SAP), the thorax was opened and the left lung immediately removed and frozen in liquid nitrogen. The heart was dissected and weighed for calculation of the right ventricular hypertrophy index (ratio of right ventricular free wall weight over sum of septum plus left ventricular free wall weight; RV/LV+S). The right lung was fixed in the distended state with formalin buffer. After routine processing and paraffin embedding, multiple sections from each lobe were stained with haemotoxylin and eosin. In each rat, 60 intraacinar arteries were analyzed and categorized as muscular (fully or partially) or nonmuscular to assess the degree of muscularization. In addition, intraacinar fully muscularized arteries were evaluated for measurements of medial wall thickness which was calculated and expressed as follows: index (%)=(External diameter−internal diameter)/External diameter×100%.
(§5) The data are expressed as means±SEM. A nonparametric Mann-Whitney test was used for comparisons between two groups. Comparisons of data at various times after MCT injection or of various treatment groups were performed using a nonparametric Kruskal-Wallis test followed by Dunn's test when significant. To compare the degree of pulmonary vessels muscularization between groups, we used a non parametric Mann-Whitney or a Kruskal-Wallis test after ordinal classification of the vessels as non muscular, partially muscular, or fully muscular.

[2] = tested on: monocrotaline (MCT)-induced pulmonary arterial hypertension in rats (curative approach); test: Monocrotaline (MCT)-induced pulmonary hypertension in rats, curative approach (treatment day 21 to day 42)
Procedure: as §3, §4, §5
In a curative approach Roflumilast (1.5 mg/kg/d) p.o. or vehicle were administered beginning at day 21 following MCT i.e. when pulmonary vascular remodeling and consequently augmented PAP and right ventricular hypertrophy were manifest. After another 3 weeks (i.e. at day 42) PAP was measured and rats were sacrificed to assess RV/LV+S ratio and muscularization of distal pulmonary arteries.

[3] = tested on: chronic hypoxia-induced pulmonary arterial hypertension in rats; details: for PAP: mean ± SEM; for RV/LV + S: right ventricular hypertrophy index; for Muscularization: distal pulmonary arteries
Procedure: as §1, §2
Rats were exposed to chronic hypoxia (10% O2) in a ventilated chamber (500-liter volume, Flufrance, Cachan, France). To establish the hypoxic environment, the chamber was flushed with a mixture of room air and nitrogen, and the gas was recirculated. The environment within the chamber was monitored using an oxygen analyzer (Oxiquant M, EnviTeC—Wismar, Germany). Carbon dioxide was removed by self-indicating soda lime granules. Excess humidity was prevented by cooling of the recirculation circuit. The chamber temperature was maintained at 22-24° C. The chamber was opened every other day for 1 hour to clean the cages and replenish food and water supplies. Normoxic control rats were kept in the same room with identical light-dark cycle. Rats exposed to chronic hypoxia were randomly assigned to three groups (8-10 animals per group): the first group received Roflumilast at 0.5 mg kg^−1 d^−1, the second group received Roflumilast at 1.5 mg kg^−1 d^−1, the third group received vehicle (methocel). A group not exposed to hypoxia served as control. Roflumilast or vehicle were administered once daily by gavage over 15 days of exposure to hypoxia.
as §4, §5

[4] = MCT + 0.5 mg/kg Roflumilast for 21 days
[5] = MCT + 1.5 mg/kg Roflumilast for 21 days
[6] = conclusion for pulmonary hypertension triggered by hypoxia or monocrotaline in rats
[7] = Day 42, Roflumilast 1.5 mg/kg/d p.o. starting day 21 after MCT
[8] = Hypoxia 15 days + 0.5 mg/kg Roflumilast once daily by gavage
[9] = Hypoxia 15 days + 1.5 mg/kg Roflumilast once daily by gavage

For O=C(Nc1c(Cl)cncc1Cl)c1ccc(OC(F)F)c(OCC2CC2)c1 [Roflumilast, 3-cyclopropyl-methoxy-4-difluoromethoxy-N-(3,5-dichloropyrid-4-yl)benzamide], which PAP ([1]; MCT 60 mg/kg s.c. + 0.5 mg/kg Roflumilast once daily by gavage for 21 days) is on record?
The PAP was 29.3 ± 1.3 mm Hg.

And the PAP ([1]; MCT 60 mg/kg s.c. + 1.5 mg/kg Roflumilast once daily by gavage for 21 days)?
Its PAP is 21.4 ± 2.0 mm Hg.

What about the Muscularization [1, 4] of the same molecule?
The Muscularization was 62.7 ± 5.4%.

And the “RV/LV + S” value [1, 4]?
Its value is 38.9 ± 1.6%.

And the Muscularization [1, 5]?
The Muscularization was 30.3 ± 8.2%.

And the “RV/LV + S” value [1, 5]?
The value was 31.3 ± 1.8%.

What about the heart rate [1, 6] of the same molecule?
The heart rate was “unaffected”.

And the systemic arterial pressure [1, 6]?
Its systemic arterial pressure is “unaffected”.

And the PAP [2, 7]?
The PAP was 23.6 ± 0.7 mmHg.

What about the “RV/LV + S” value [2, 7] of the same molecule?
Its value is 33.8 ± 0.9%.

And the Muscularization ([2]; Day 42, Roflumilast 1.5 mg/kg/d p.o. starting day 21 after MCT, distal pulmonary arteries)?
Its Muscularization is 36.4 ± 2.4%.

And the “survival rate (animals alive at day 42)” value ([2]; Roflumilast 1.5 mg/kg/d from day 21, 17 of 24 rats, vehicle 54%)?
Its value is 71%.

And the “reduction of the proportion of fully muscularized arterioles” value ([2]; at day 42, Roflumilast 1.5 mg/kg/d from day 21)?
Its value is greater than 50%.

And the “Medial wall thickness index of the fully muscularized pulmonary arterioles” value ([2]; at day 42, Roflumilast 1.5 mg/kg/d from day 21, vehicle 52±4%)?
Its value is 18±2%.

What about the “ratio of completely obliterated arterioles” value ([2]; at day 42, Roflumilast 1.5 mg/kg/d from day 21, vehicle 66±3%) of the same molecule?
Its value is 30±5%.

And the PAP [3, 8]?
Its PAP is 28 ± 1.8 mm Hg.

And the “RV/LV + S” value [3, 8]?
Its value is 37.8 ± 2.3%.

And the Muscularization ([3]; Hypoxia 15 days + 0.5 mg/kg Roflumilast)?
The Muscularization was 31.8 ± 2%.

And the PAP [3, 9]?
Its PAP is 25.5 ± 1.8 mm Hg.

And the “RV/LV + S” value [3, 9]?
Its value is 30.5 ± 0.8%.

And the Muscularization ([3]; Hypoxia 15 days + 1.5 mg/kg Roflumilast)?
Its Muscularization is 18.5 ± 2%.
